Like-named read-outs stand apart in the source and are kept apart here.
Experiments:
[1] = tested on: convulsions caused by strychnine; assay: Strychnine convulsions in the rat, intraperitoneal; format: in vivo, rat (male CD, Charles River); settings: for ED50: Rattus norvegicus, ip, read-out: ED50 Strychnine (rat ip)
Procedure: (§1) In the case of the male rat CD (Charles River) of 200-230 g, the convulsions are caused by the subcutaneous injection either of 500 mg/kg of isoniazide (INH) or of 1.5 mg/kg of a strychnine in the form of the sulfate. According to the protocol described by J. L. Costa et al. (Adv. Biochem., Pharmacol., 14, 113, 1975), the product to be tested is administered intraperitoneally 25 minutes after the isoniazide and 5 minutes before the strychnine. The number of animals having shown convulsions is registered during an observation period of 60 minutes after the injection of the isoniazide and 25 minutes after the injection of the strychnine.
(§2) The results obtained are collected in the following Table 1, wherein there are also given, for comparison, the results provided by two reference anticonvulsants (valproic acid, phenobarbital).

[2] = tested on: convulsions caused by supramaximal electric shock (ESM); assay: Supramaximal electric shock (ESM) convulsions in the mouse, oral; format: in vivo, mouse (male CD1, Charles River); settings: 1.5 h, read-out: ED50 E.S.M. (mouse orally)
Procedure: These effects have been shown in vivo on the mouse and the rat. In the case of the mouse, the product is administered orally, in increasing doses, to batches of 10 male mice CD1 (Charles River) of 20-27 g, 90 minutes before exposure to a supramaximal electric shock (ESM), according to the method described by G. M. Everett and R. K. Richards (J. Pharmacol, Exptl. Therap. 81, 402, 1944).
as §2

[3] = tested on: convulsions caused by isoniazide (INH); assay: animal or person; format: in vivo, rat (male CD, Charles River); settings: for ED50: 25 min, rat, ip, 25 minutes after 500 mg/kg sc isoniazide, dose protecting 50% of animals, read-out: ED50 I.N.H. (rat ip)
Procedure: as §1

[4] = tested on: male mouse CD1; assay: Test of the 4 plates (anxiolytic activity); format: in vivo, Charles River); settings: 90 minutes before test, vs control group
Procedure: The anxiolytic activity of the product has been shown on the mouse, by use of the method called the test of the 4 plates, described by J. R. Boissier et al. (Europ. J. Pharmacol., 4, 145, 1968).
90 minutes after oral administration of the product, the animal undergoing the test (male mouse CD1 Charles River of 20-27 g) is placed in a box the base or floor of which is formed of four separated metal plates. Each time the animal passes from one plate to another, all the plates are electrified. The animal rapidly associates displacement and an electric shock and stays immovable on one of the plates. The number of crossings effected by the mouse in 2 minutes is thus determined.
The animals are divided into groups of 20 mice, the control group receiving only the vehicle. The results obtained for the treated groups are expressed by a percentage increase of the number of passages with respect to the control group and are collected in Table 2 below.

SMILES | ED50 Strychnine (rat ip), result in words ([1]; rat, inactive at 600 (mg/kg)) | ED50 ([2]; Mus musculus, po) [mg/kg] | ED50 [3] [mg/kg] | % increase of the number of passages ([4]; 5 mg/kg orally) [%] | % increase of the number of passages ([4]; 10 mg/kg orally) [%] | % increase of the number of passages ([4]; 20 mg/kg orally) [%] | % increase of the number of passages ([4]; 25 mg/kg orally (first line printed 25)) [%] | % increase of the number of passages ([4]; 25 mg/kg orally (second line printed 25)) [%] | ED50 [1] [mg/kg] | ED50 ([2]; mouse, oral, 90 minutes before supramaximal electric shock, dose protecting 50% of animals) [mg/kg] | doses inhibiting INH convulsions, times less than those necessary to inhibit strychnine convulsions ([3]; INH versus strychnine convulsions) [times]
CCCC(CCC)C(=O)O [Valproic acid] | inactive | 450 | 180 |  |  |  |  |  |  |  | 
Nc1nc2ccc(OC(F)(F)F)cc2s1 [2-Amino-6-trifluoromethoxy-benzothiazole] |  |  | 2.2 | 50 | 61 | 100 | 162 | 215 | 8.4 | 10 | 4
CCC1(c2ccccc2)C(=O)NC(=O)NC1=O [Phenobarbital] |  | 26 | 16 |  |  |  |  |  | 33 |  | 

From US4370338A (priority 1980, dated 1983)
